Test results taken from the NIST ThermoML archive (doi:10.1016/j.jct.2016.05.021).

How the values were obtained:
[1] = xn = mol fraction of the nth substance listed; details: 100 kPa, Liquid; for mass density: Vibrating tube method; for speed of sound: Frequency=3 MHz, Sing-around technique in a fixed-path interferometer
[2] = refractive index (Na D-line) (dimensionless); xn = mol fraction of the nth substance listed; details: 100 kPa, Liquid, Standard Abbe refractometry

O=C1CCCN1 [2-pyrrolidinone] + CCCC[n+]1ccn(C)c1.O=S(=O)([N-]S(=O)(=O)C(F)(F)F)C(F)(F)F
Details | mass density, 318.15 K [kg/m3] | mass density, 323.15 K [kg/m3] | refractive index, 298.15 K | refractive index, 303.15 K | refractive index, 308.15 K | refractive index, 313.15 K | refractive index, 318.15 K | refractive index, 323.15 K | speed of sound, 323.15 K [m/s]
[1], x2 = 0 | 1090.82 | 1086.75 | – | – | – | – | – | – | 1553.5
[1], x2 = 0.1242 | 1182.35 | 1176.91 | – | – | – | – | – | – | 1420.2
[1], x2 = 0.22 | 1231.34 | 1225.78 | – | – | – | – | – | – | 1362.6
[1], x2 = 0.3191 | 1270.47 | 1264.95 | – | – | – | – | – | – | 1320.9
[1], x2 = 0.4048 | 1298.28 | 1292.83 | – | – | – | – | – | – | 1292.9
[1], x2 = 0.51 | 1326.8 | 1321.44 | – | – | – | – | – | – | 1264.6
[1], x2 = 0.5945 | 1346.22 | 1340.9 | – | – | – | – | – | – | 1245.2
[1], x2 = 0.7171 | 1370.46 | 1365.25 | – | – | – | – | – | – | 1220.5
[1], x2 = 0.8383 | 1391.04 | 1385.92 | – | – | – | – | – | – | 1199.1
[1], x2 = 0.9084 | 1401.82 | 1396.86 | – | – | – | – | – | – | 1187.6
[2], x2 = 0 | – | – | 1.48591 | 1.48403 | 1.48218 | 1.48033 | 1.47841 | 1.47649 | –
[2], x2 = 0.1242 | – | – | 1.46742 | 1.46576 | 1.46414 | 1.46253 | 1.46087 | 1.4592 | –
[2], x2 = 0.22 | – | – | 1.45836 | 1.45679 | 1.45525 | 1.4537 | 1.45212 | 1.45051 | –
[2], x2 = 0.3191 | – | – | 1.45142 | 1.44988 | 1.44835 | 1.44683 | 1.44527 | 1.44369 | –
[2], x2 = 0.4048 | – | – | 1.44661 | 1.4451 | 1.44359 | 1.44209 | 1.44057 | 1.43902 | –
[2], x2 = 0.51 | – | – | 1.44176 | 1.44028 | 1.43881 | 1.43733 | 1.43584 | 1.43432 | –
[2], x2 = 0.5945 | – | – | 1.43844 | 1.43699 | 1.43554 | 1.43407 | 1.43261 | 1.4311 | –
[2], x2 = 0.7171 | – | – | 1.4343 | 1.43286 | 1.43142 | 1.42997 | 1.42853 | 1.42704 | –
[2], x2 = 0.8383 | – | – | 1.43075 | 1.42932 | 1.42789 | 1.42645 | 1.42499 | 1.42352 | –
[2], x2 = 0.9084 | – | – | 1.42892 | 1.42747 | 1.426 | 1.42456 | 1.42312 | 1.42164 | –
